Counter-ions that a name gives are not always drawn.

In this test the target is human cloned 5-HT6 receptors (Homo sapiens, UniProt P50406).
Sequence of human cloned 5-HT6 receptors (P50406 whole entry): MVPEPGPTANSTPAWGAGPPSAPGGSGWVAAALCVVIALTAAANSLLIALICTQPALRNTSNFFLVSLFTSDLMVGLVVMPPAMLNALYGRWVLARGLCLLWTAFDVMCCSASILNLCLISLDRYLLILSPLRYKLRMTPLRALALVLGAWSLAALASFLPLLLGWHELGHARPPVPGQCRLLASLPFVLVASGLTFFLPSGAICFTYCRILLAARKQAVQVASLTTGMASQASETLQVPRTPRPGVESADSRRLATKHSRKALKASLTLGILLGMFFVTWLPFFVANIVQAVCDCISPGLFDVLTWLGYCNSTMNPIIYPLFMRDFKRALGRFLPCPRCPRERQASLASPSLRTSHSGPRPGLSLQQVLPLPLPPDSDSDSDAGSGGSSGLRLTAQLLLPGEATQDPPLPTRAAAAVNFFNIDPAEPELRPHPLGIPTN

As for `O=S(=O)(c1ccccc1)c1c[nH]c2ccc(N3CCN(Cc4ccccc4)CC3)nc12` [Example 8, 5-(4-Benzylpiperazin-1-yl)-3-(phenylsulfonyl)-1H-pyrrolo[3,2-b]pyridine], the Ki (as a rule, the equilibrium dissociation constant of an inhibitor or competing ligand from its target) is 30 nM. Next, `CN1CCN(c2ccc3[nH]nc(S(=O)(=O)c4ccccc4)c3n2)CC1` [Example 4, 5-(4-methylpiperazin-1-yl)-3-(phenylsulfonyl)-1H-pyrazolo-[4,3-b]pyridine hydrochloride]: 34 nM; `O=S(=O)(c1ccccc1)c1c[nH]c2ccc(N3CCNCC3)nc12` [Example 9, 3-(Phenylsulfonyl)-5-piperazin-1-yl-1H-pyrrolo[3,2-b]pyridine Dihydrochloride]: 2 nM.

For the origin of these results see patent publication US7576087B2, “Heterocyclyl-3-sulfonylazaindole or -azaindazole derivatives as 5-hydroxytryptamine-6 ligands” (Wyeth, priority 2003, dated 2009).
